In patent publication US9944967B2, “Methods for the site-selective introduction of halogen into natural products” (THE REGENTS OF THE UNIVERSITY OF CALIFORNIA, priority 2013, dated 2018):

Key:
[1] = test system: malonyl-CoA synthetase (MatB); assay: Malonyl-CoA synthetase (MatB) coupled assay; format: biochemical, S. coelicolor
Description: MatB activity was measured using a modified literature method (Williamson, J. R., et al., Method. Enzymol., 434-513 (1969)). The production of AMP was coupled to pyruvate formation by myokinase and pyruvate kinase, which in turn was coupled to NADH oxidation by lactate dehydrogenase. Assays were performed at 30° C. in a total volume of 200 μL containing 100 mM HEPES, pH 7.5, TCEP (1 mM), ATP (2.5 mM), magnesium chloride (5 mM), phosphoenolpyruvate (1 mM), NADH (0.3 mM), myokinase (0.5 U), pyruvate kinase (3.6 U), lactate dehydrogenase (2.6 U), dicarboxylic acid (25 μM-1 mM malonate, 50 μM-10 mM fluoromalonate or 25 μM-1.5 mM methylmalonate) and MatB (26 nM for malonate, 1 μM for fluoromalonate and 200 nM for methylmalonate). The reaction was initiated with addition of CoA (0.5 mM) and monitored at 340 nm in a Beckman Coulter DU-800 spectrophotometer.

[2] = test system: DEBSMod6+TE; assay: Covalent inhibition assay for DEBSMod6+TE; format: biochemical; conditions: 18 h incubation in F-TKL reaction, then tested for TKL production; preliminary
Description: Two triketide reaction mixtures (200 μL) were prepared as described above, one containing fluoromalonate (10 mM) and the other methylmalonate (10 mM). DEBSMod6+TE (10 μM) and NDK-SNAC (2.5 mM) were added to each and the reactions were incubated at 37° C. for 18 h. The protein fraction was isolated from each mixture at room temperature by desalting on a Sephadex G-25 column (3 mL) using 400 mM sodium phosphate, pH 7.5. Fractions were pooled by Bradford assay and concentrated to 200 μL using Amicon Ultra spin concentrators (3 kDa MWCO). The isolated DEBSMod6+TE was assayed by adding TCEP (2.5 mM), methylmalonyl-CoA (1 mM) and NDK-SNAC (1 mM) to this mixture to give a final volume of 210 μL and incubating at 37° C. for 3 h, then analyzed by HPLC as described above.

[3] = molecular target: T1, DEBSMod6+TE (Saccharopolyspora erythraea, UniProt Q03133); assay: Acyl-CoA hydrolysis by DEBSMod6+TE (DTNB assay); format: biochemical
T1 construct: the sixth module of DEBS, including the terminal thioesterase (DEBSMod6+TE); His6 (C); made in house; host or cells: E. coli BAP1
T1 sequence (Q03133 1492-3172): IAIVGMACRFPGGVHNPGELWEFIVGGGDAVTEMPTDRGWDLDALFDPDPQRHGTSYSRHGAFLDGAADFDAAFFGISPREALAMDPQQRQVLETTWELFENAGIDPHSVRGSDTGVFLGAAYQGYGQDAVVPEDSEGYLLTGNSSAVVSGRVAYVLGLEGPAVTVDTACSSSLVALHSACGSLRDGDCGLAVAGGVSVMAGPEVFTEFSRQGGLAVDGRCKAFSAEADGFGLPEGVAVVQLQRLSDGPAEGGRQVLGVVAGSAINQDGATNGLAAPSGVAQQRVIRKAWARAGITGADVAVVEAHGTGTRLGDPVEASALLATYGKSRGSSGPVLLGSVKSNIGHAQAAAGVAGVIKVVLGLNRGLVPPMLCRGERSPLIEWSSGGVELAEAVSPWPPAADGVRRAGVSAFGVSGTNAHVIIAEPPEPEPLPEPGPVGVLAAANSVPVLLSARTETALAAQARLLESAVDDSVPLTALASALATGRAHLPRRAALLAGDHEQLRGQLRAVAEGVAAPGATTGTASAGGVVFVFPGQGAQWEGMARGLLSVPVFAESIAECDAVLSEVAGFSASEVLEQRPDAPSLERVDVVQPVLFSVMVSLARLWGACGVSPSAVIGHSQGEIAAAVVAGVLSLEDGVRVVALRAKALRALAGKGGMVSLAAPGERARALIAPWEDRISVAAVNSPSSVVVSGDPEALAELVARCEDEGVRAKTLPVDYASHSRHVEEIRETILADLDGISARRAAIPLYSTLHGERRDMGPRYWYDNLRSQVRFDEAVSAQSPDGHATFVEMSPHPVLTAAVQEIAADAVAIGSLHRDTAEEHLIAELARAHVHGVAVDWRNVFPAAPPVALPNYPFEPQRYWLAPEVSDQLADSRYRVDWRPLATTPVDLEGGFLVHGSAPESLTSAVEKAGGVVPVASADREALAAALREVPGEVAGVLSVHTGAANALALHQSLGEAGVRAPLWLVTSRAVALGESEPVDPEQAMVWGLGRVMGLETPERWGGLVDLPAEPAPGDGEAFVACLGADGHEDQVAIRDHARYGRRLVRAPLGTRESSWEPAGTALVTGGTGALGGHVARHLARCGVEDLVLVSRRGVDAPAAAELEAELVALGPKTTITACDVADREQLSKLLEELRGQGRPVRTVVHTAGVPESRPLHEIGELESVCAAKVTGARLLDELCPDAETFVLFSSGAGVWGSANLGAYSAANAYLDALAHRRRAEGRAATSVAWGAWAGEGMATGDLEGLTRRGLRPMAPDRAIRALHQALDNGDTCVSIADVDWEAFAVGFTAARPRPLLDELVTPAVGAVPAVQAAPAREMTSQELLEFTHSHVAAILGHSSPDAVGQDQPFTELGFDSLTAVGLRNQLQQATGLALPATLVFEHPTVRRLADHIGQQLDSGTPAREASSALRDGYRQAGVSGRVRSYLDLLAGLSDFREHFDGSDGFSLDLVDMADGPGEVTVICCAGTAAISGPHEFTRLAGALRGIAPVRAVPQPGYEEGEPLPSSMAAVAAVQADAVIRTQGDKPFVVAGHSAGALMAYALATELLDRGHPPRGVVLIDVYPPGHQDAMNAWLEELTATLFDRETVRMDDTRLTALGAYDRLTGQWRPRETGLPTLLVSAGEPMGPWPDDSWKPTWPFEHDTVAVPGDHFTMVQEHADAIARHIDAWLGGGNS
Description: Hydrolytic activity of DEBSMod6+TE was measured by monitoring the reaction of free CoA with DTNB as described previously (Huang, F., et al., Chem. Biol., 13:475-484 (2006)). Assays were performed at 37° C. in a total volume of 200 μL containing 400 mM sodium phosphate, pH 7.5, 500 μM DTNB, and DEBSMod6+TE (1 μM). Reactions were initiated by addition of acyl-CoA (0.5 mM) and monitored at 412 nm in a Beckman Coulter DU-800 spectrophotometer. Release of CoA was quantified by comparison to a standard curve (5-100 μM).

[4] = Stability of fluoromalonyl-CoA solutions; format: physicochemical; conditions: room temperature; in water or D2O
Description: Fluoromalonyl-CoA was prepared enzymatically from fluoromalonate and CoA using MatB and ATP. A myokinase/pyruvate kinase/PEP system was also used to regenerate ATP in order to avoid high concentrations of AMP that might inhibit MatB. The reaction mixture (10 mL) contained 100 mM sodium phosphate, pH 7.5, phosphoenolpyruvate (5 mM), TCEP (2.5 mM), magnesium chloride (5 mM), fluoromalonate (2.5 mM), ATP (2.5 mM), pyruvate kinase (36 U), myokinase (20 U), CoA (2 mM) and MatB (5 μM). The mixture was incubated at 37° C. for 6 h and then at room temperature for 16 h before lyophilizing overnight. The residue was dissolved in water (1.6 mL) and acidified to pH ˜2 by addition of 70% perchloric acid (160 μL). Insoluble material was removed by centrifugation at 18,000×g for 10 min. […] HR-ESI-MS [M−H]^−: calculated for C24H36FN2O19P3S, m/z, 870.0989. found m/z 870.0991.

| Compound | selectivity of MatB for malonate over fluoromalonate [1] [fold] | covalent inactivation of DEBSMod6+TE [2] | v0 (rate of acyl-CoA hydrolysis) ([3]; DEBSMod6 + TE (1 μM), acyl-CoA (500 μM), mean ± s.d. (n = 4)) [µM/min] | Relative rate of acyl-CoA hydrolysis ([3]; relative to methylmalonyl-CoA) | stability of solutions [4] |
| --- | --- | --- | --- | --- | --- |
| Fluoromalonate | 103 |  |  |  |  |
| CC(C)(COP(=O)(O)OP(=O)(O)OC[C@H]1O[C@@H](n2cnc3c(N)ncnc32)[C@H](O)[C@@H]1OP(=O)(O)O)[C@@H](O)C(=O)NCCC(=O)NCCSC(=O)C(F)C(=O)O (some centres unmarked) [Fluoromalonyl-CoA] |  | not due to covalent inactivation of the enzyme | 3.5 ± 0.3 | 2.6 | at least 24 h |
